Data on 2 molecules can be found in patent US20030152628A1, “Dual release formulation comprising levodopa ethyl ester and a decarboxylase inhibitor in an immediate-release layer with levodopa ethyl ester in a controlled release core” (priority 2001, published 2003).

A short description of data set [1]: Solubility and stability properties of the active materials.
A short description of data set [2]: Solubility at ˜22-24° C. versus pH. Format: physicochemical. From the text: However, carbidopa and LDEE, examples of two active materials in the composition of the present invention, have different chemical and physical properties and contrasting solubility characteristics especially in acid conditions, i.e., in the gastrointestinal tract (see Table 1).

Converted amounts (≈) assume the structure as drawn.

Consider `C[C@@](Cc1ccc(O)c(O)c1)(NN)C(=O)O` [Carbidopa, carbidopa, reference compound], for which the solubility in water entry in data set [1] is “slightly soluble”.
The term Solubility denotes the dissolved amount per volume that the medium holds. A low value points to little dissolved substance. On to `CCOC(=O)[C@@H](N)Cc1ccc(O)c(O)c1` [LDEE, levodopa ethyl ester], for which the figures for the Solubility in data set [2] (pH 1.0) and in data set [2] (pH 5.0) were 2200 mg/mL (≈ 9770 mM) and 1700 mg/mL (≈ 7550 mM), respectively. The “sensitivity to moisture / hydrolysis” value in data set [1] is reported as “highly sensitive to moisture, undergoes hydrolysis easily”. For the same molecule, the “stability at room temperature” value in data set [1] (kept under refrigeration (2-8° C.)) is reported as “not stable at room temperature”.
